Results reported in US9695155B2, “Herbicidal substituted pyrimidinyloxy benzene compounds” (E. I. DU PONT DE NEMOURS AND COMPANY, priority 2013, dated 2017).

How the values were obtained:
oilseed rape = experiment: Test D preemergence; format: in vivo, Brassica napus; settings: Brassica napus, pre-emergence
Outline: (§1)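 Visual rating vs untreated controls, 0 = no effect, 100 = complete control, taken 7–21 d after treatment. Pre: silt loam soil. Post: potting medium, plants 2–18 cm, 1–4 leaf. Formulation: non-phytotoxic solvent mix + surfactant.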

chamomile = experiment: Test D preemergence; format: in vivo, Matricaria inodora; settings: Tripleurospermum inodorum, pre-emergence
Outline: as §1

speedwell = experiment: Test D preemergence; format: in vivo, Veronica persica; settings: Veronica persica, pre-emergence
Outline: as §1

wild buckwheat = experiment: Test D preemergence; format: in vivo, Polygonum convolvulus; settings: Fallopia convolvulus, pre-emergence
Outline: as §1

wild mustard [1] = experiment: Test D preemergence; format: in vivo, Sinapis arvensis; settings: Brassica, pre-emergence
Outline: as §1

wild oat = experiment: Test D preemergence; format: in vivo, Avena fatua; settings: Avena fatua, pre-emergence
Outline: as §1

wild radish [2] = experiment: Test D preemergence; format: in vivo, Raphanus raphanistrum; settings: Raphanus raphanistrum, pre-emergence
Outline: as §1

windgrass = experiment: Test D preemergence; format: in vivo, Apera spica-venti; settings: Apera spica-venti, pre-emergence
Outline: as §1

field violet = experiment: Test D postemergence; format: in vivo, Viola arvensis; settings: Viola arvensis, post-emergence
Outline: as §1

green foxtail = experiment: Test D postemergence; format: in vivo, Setaria viridis; settings: Setaria viridis, post-emergence
Outline: as §1

deadnettle = experiment: Test D postemergence; format: in vivo, Lamium amplexicaule; settings: Lamium amplexicaule, post-emergence
Outline: as §1

wild mustard [3] = experiment: Test D postemergence; format: in vivo, Sinapis arvensis; settings: Brassica, post-emergence
Outline: as §1

wild radish [4] = experiment: Test D postemergence; format: in vivo, Raphanus raphanistrum; settings: Raphanus raphanistrum, post-emergence
Outline: as §1

## Fc1cccc(Oc2ncc(Cl)cn2)c1-n1cc(Br)cn1 [Compound 178, 2-[2-(4-bromo-1H-pyrazol-1-yl)-3-fluorophenoxy]-5-chloropyrimidine]
Oilseed rape; 16 g ai/ha, scale 0 (no effect) to 100 (complete control), read-out: Plant response rating, Oilseed Rape
  plant injury at 16 g/ha: 65%
Oilseed rape; 31 g ai/ha, scale 0-100, read-out: Plant response rating, Oilseed Rape
  plant injury at 31 g/ha: 75%
Oilseed rape; 125 g ai/ha, scale 0-100, read-out: Plant response rating, Oilseed Rape
  plant injury at 125 g/ha: 100%
chamomile; 16 g ai/ha, scale 0 (no effect) to 100 (complete control), read-out: Plant response rating, Chamomile
  pest or weed control at 16 g/ha: 0%
chamomile; 31 g ai/ha, scale 0-100, read-out: Plant response rating, Chamomile
  pest or weed control at 31 g/ha: 70%
chamomile; 62 g ai/ha, scale 0-100, read-out: Plant response rating, Chamomile
  pest or weed control at 62 g/ha: 55%
chamomile; 125 g ai/ha, scale 0-100, read-out: Plant response rating, Chamomile
  pest or weed control at 125 g/ha: 60%
speedwell; 16 g ai/ha, scale 0 (no effect) to 100 (complete control), read-out: Plant response rating, Speedwell
  pest or weed control at 16 g/ha: 100%
speedwell; 31 g ai/ha, scale 0 (no effect) to 100 (complete control), read-out: Plant response rating, Speedwell
  pest or weed control at 31 g/ha: 100%
speedwell; 62 g ai/ha, scale 0-100, read-out: Plant response rating, Speedwell
  pest or weed control at 62 g/ha: 100%
speedwell; 125 g ai/ha, scale 0-100, read-out: Plant response rating, Speedwell
  pest or weed control at 125 g/ha: 100%
Wild buckwheat; 16 g ai/ha, scale 0 (no effect) to 100 (complete control), read-out: Plant response rating, Buckwheat, Wild
  pest or weed control at 16 g/ha: 15%
Wild buckwheat; 31 g ai/ha, scale 0-100, read-out: Plant response rating, Buckwheat, Wild
  pest or weed control at 31 g/ha: 55%
Wild buckwheat; 62 g ai/ha, scale 0-100, read-out: Plant response rating, Buckwheat, Wild
  pest or weed control at 62 g/ha: 100%
Wild buckwheat; 125 g ai/ha, scale 0-100, read-out: Plant response rating, Buckwheat, Wild
  pest or weed control at 125 g/ha: 100%
Wild mustard [1]; 16 g ai/ha, scale 0 (no effect) to 100 (complete control), read-out: Plant response rating, Mustard, Wild
  pest or weed control at 16 g/ha: 25%
Wild mustard [1]; 31 g ai/ha, scale 0-100, read-out: Plant response rating, Mustard, Wild
  pest or weed control at 31 g/ha: 35%
Wild mustard [1]; 62 g ai/ha, scale 0-100, read-out: Plant response rating, Mustard, Wild
  pest or weed control at 62 g/ha: 95%
Wild mustard [1]; 125 g ai/ha, scale 0-100, read-out: Plant response rating, Mustard, Wild
  pest or weed control at 125 g/ha: 95%
Wild oat; 16 g ai/ha, scale 0 (no effect) to 100 (complete control), read-out: Plant response rating, Oat, Wild
  pest or weed control at 16 g/ha: 0%
Wild oat; 31 g ai/ha, scale 0-100, read-out: Plant response rating, Oat, Wild
  pest or weed control at 31 g/ha: 0%
Wild oat; 62 g ai/ha, scale 0-100, read-out: Plant response rating, Oat, Wild
  pest or weed control at 62 g/ha: 10%
Wild oat; 125 g ai/ha, scale 0-100, read-out: Plant response rating, Oat, Wild
  pest or weed control at 125 g/ha: 25%
Wild radish [2]; 16 g ai/ha, scale 0 (no effect) to 100 (complete control), read-out: Plant response rating, Radish, Wild
  pest or weed control at 16 g/ha: 55%
Wild radish [2]; 31 g ai/ha, scale 0 (no effect) to 100 (complete control), read-out: Plant response rating, Radish, Wild
  pest or weed control at 31 g/ha: 90%
Wild radish [2]; 62 g ai/ha, scale 0-100, read-out: Plant response rating, Radish, Wild
  pest or weed control at 62 g/ha: 100%
Wild radish [2]; 125 g ai/ha, scale 0-100, read-out: Plant response rating, Radish, Wild
  pest or weed control at 125 g/ha: 100%
windgrass; 16 g ai/ha, scale 0 (no effect) to 100 (complete control), read-out: Plant response rating, Windgrass
  pest or weed control at 16 g/ha: 75%
windgrass; 31 g ai/ha, scale 0 (no effect) to 100 (complete control), read-out: Plant response rating, Windgrass
  pest or weed control at 31 g/ha: 75%
windgrass; 62 g ai/ha, scale 0-100, read-out: Plant response rating, Windgrass
  pest or weed control at 62 g/ha: 70%
windgrass; 125 g ai/ha, scale 0-100, read-out: Plant response rating, Windgrass
  pest or weed control at 125 g/ha: 95%
Field violet; 16 g ai/ha, scale 0-100, read-out: Plant response rating, Field Violet
  pest or weed control at 16 g/ha: 50%
Field violet; 31 g ai/ha, scale 0 to 100 (0 no effect, 100 complete control), read-out: Plant response rating, Field Violet
  pest or weed control at 31 g/ha: 60%
Field violet; 62 g ai/ha, scale 0 to 100 (0 no effect, 100 complete control), read-out: Plant response rating, Field Violet
  pest or weed control at 62 g/ha: 65%
Field violet; 125 g ai/ha, scale 0 to 100 (0 no effect, 100 complete control), read-out: Plant response rating, Field Violet
  pest or weed control at 125 g/ha: 70%
Green foxtail; 16 g ai/ha, scale 0-100, read-out: Plant response rating, Foxtail, Green
  pest or weed control at 16 g/ha: 15%
Green foxtail; 31 g ai/ha, scale 0 to 100 (0 no effect, 100 complete control), read-out: Plant response rating, Foxtail, Green
  pest or weed control at 31 g/ha: 20%
Green foxtail; 62 g ai/ha, scale 0 to 100 (0 no effect, 100 complete control), read-out: Plant response rating, Foxtail, Green
  pest or weed control at 62 g/ha: 30%
Green foxtail; 125 g ai/ha, scale 0 to 100 (0 no effect, 100 complete control), read-out: Plant response rating, Foxtail, Green
  pest or weed control at 125 g/ha: 35%
deadnettle; 16 g ai/ha, scale 0-100, read-out: Plant response rating, Deadnettle
  pest or weed control at 16 g/ha: 40%
deadnettle; 31 g ai/ha, scale 0 to 100 (0 no effect, 100 complete control), read-out: Plant response rating, Deadnettle
  pest or weed control at 31 g/ha: 45%
deadnettle; 62 g ai/ha, scale 0 to 100 (0 no effect, 100 complete control), read-out: Plant response rating, Deadnettle
  pest or weed control at 62 g/ha: 50%
deadnettle; 125 g ai/ha, scale 0 to 100 (0 no effect, 100 complete control), read-out: Plant response rating, Deadnettle
  pest or weed control at 125 g/ha: 65%
Wild mustard [3]; 16 g ai/ha, scale 0-100, read-out: Plant response rating, Mustard, Wild
  pest or weed control at 16 g/ha: 70%
Wild mustard [3]; 31 g ai/ha, scale 0 to 100 (0 no effect, 100 complete control), read-out: Plant response rating, Mustard, Wild
  pest or weed control at 31 g/ha: 75%
Wild mustard [3]; 62 g ai/ha, scale 0 to 100 (0 no effect, 100 complete control), read-out: Plant response rating, Mustard, Wild
  pest or weed control at 62 g/ha: 75%
Wild mustard [3]; 125 g ai/ha, scale 0 to 100 (0 no effect, 100 complete control), read-out: Plant response rating, Mustard, Wild
  pest or weed control at 125 g/ha: 100%
Wild radish [4]; 16 g ai/ha, scale 0-100, read-out: Plant response rating, Radish, Wild
  pest or weed control at 16 g/ha: 60%
Wild radish [4]; 31 g ai/ha, scale 0 to 100 (0 no effect, 100 complete control), read-out: Plant response rating, Radish, Wild
  pest or weed control at 31 g/ha: 65%
Wild radish [4]; 62 g ai/ha, scale 0 to 100 (0 no effect, 100 complete control), read-out: Plant response rating, Radish, Wild
  pest or weed control at 62 g/ha: 70%
Wild radish [4]; 125 g ai/ha, scale 0 to 100 (0 no effect, 100 complete control), read-out: Plant response rating, Radish, Wild
  pest or weed control at 125 g/ha: 80%
